Results as given in patent US12397518B2, “WS12-releasing contact lens” (CooperVision International Limited, priority 2021, dated 2025).

What was measured:
[1] = WS12 leaching into PBS packaging solution during autoclave (HPLC); type: physicochemical; conditions: standard contact lens sterilization and storage conditions
Description: Silicone hydrogel contact lenses were prepared by curing the formulation for stenfilcon A in contact lens molds. The cured stenfilcon A was removed from the molds and extracted by immersing them for 215 minutes in ethanol (EtOH) containing WS12 (Tocris Bioscience) in the loading concentrations shown in Table I. The lenses were removed from the EtOH and washed in DI water for approximately 6 minutes, followed by two exchanges of DI water for approximately 30 minutes each. The lenses were transferred to 6 mL glass vials containing 3 mL phosphate buffered saline at pH 7.5 (0.78 wt. % NaCl, 0.05 wt. % sodium phosphate monobasic, and 0.36 wt. % sodium phosphate dibasic), referred to herein as PBS. The vials were sealed and autoclaved.
Each autoclaved lens was transferred to a vial containing 3 ml EtOH and stored overnight on a 150 rpm shaker at room temperature to extract WS12 from the lens. The EtOH extracts and the PBS in which the lenses were autoclaved were submitted for analysis by HPLC (detection wavelength=250 nm) against calibration standards to determine the average amount of WS12 loaded into each (n=5) and whether the WS12 leaches from the lens during autoclave.

[2] = molecular target: transient receptor potential melastatin-8 (TRPM8) ion channels (Homo sapiens, UniProt Q7Z2W7); conditions: background statement; cited from earlier work
Sequence of transient receptor potential melastatin-8 (TRPM8) ion channels (Q7Z2W7 whole entry, species assumed): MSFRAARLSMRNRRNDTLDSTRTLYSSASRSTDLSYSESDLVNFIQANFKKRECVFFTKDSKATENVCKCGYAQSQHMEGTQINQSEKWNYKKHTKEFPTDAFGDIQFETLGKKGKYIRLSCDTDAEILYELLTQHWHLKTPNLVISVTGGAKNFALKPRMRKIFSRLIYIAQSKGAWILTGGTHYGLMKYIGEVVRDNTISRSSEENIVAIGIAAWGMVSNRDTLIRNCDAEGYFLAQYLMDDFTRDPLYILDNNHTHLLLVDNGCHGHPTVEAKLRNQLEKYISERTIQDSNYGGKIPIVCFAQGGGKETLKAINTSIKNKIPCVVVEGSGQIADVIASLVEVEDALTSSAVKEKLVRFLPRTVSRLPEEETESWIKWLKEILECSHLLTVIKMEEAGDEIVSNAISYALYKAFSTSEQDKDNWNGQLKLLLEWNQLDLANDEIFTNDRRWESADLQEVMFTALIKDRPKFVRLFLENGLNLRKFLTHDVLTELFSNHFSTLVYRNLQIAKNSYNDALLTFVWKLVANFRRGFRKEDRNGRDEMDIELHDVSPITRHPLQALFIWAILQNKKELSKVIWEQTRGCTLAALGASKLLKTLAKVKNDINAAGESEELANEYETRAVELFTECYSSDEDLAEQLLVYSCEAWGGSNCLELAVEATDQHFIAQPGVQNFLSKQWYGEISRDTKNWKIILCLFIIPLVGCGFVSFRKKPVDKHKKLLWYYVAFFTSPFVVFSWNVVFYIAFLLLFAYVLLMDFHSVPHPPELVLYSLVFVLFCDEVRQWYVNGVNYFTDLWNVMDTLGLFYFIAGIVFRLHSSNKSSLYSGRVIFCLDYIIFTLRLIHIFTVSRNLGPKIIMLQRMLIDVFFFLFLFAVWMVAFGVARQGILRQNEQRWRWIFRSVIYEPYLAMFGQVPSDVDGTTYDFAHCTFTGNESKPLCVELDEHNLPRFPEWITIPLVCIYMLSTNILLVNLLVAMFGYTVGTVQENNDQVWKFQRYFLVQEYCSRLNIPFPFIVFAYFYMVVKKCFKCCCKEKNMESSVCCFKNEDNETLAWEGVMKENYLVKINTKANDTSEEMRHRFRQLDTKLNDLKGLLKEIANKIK

In the case of COc1ccc(NC(=O)C2CC(C)CCC2C(C)C)cc1 (centres unmarked) [WS12, N-(4-Methoxyphenyl)-5-methyl-2-(1-methylethyl)cyclohexanecarboxamide], the “stability of WS12 in hydrogel contact lens material” value [1] is listed as “without degradation or leaching” and the “activation of TRPM8 ion channels” value [2] is listed as “selectively activates”.
